Measurements from ChEMBL document CHEMBL1129525 (J Med Chem, 1996).

Key:
Toxoplasma gondii = assay: Inhibition of Toxoplasma gondii cell growth; assay type: functional, organism-based
Dihydrofolate reductase [1] = target: T1, Dihydrofolate reductase (Pneumocystis carinii, UniProt P16184)
T1 sequence (P16184 whole entry): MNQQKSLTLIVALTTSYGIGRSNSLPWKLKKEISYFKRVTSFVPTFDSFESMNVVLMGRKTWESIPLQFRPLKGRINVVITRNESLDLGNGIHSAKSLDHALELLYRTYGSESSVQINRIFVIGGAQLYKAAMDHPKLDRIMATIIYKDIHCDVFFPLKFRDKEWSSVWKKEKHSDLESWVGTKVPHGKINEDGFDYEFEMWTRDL
Description: Inhibitory activity against Pneumocystis carinii dihydrofolate reductase

Dihydrofolate reductase [2] = target: T2, Dihydrofolate reductase (Rattus norvegicus, UniProt Q920D2)
T2 sequence (Q920D2 whole entry): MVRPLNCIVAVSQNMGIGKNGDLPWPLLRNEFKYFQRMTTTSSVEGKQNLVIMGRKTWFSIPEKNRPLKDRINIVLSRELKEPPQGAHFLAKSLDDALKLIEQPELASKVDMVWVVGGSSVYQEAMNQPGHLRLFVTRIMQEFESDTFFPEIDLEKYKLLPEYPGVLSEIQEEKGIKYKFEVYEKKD
Description: Inhibitory activity against rat liver dihydrofolate reductase

[3] = target: T3, Bifunctional dihydrofolate reductase-thymidylate synthase (Toxoplasma gondii, UniProt Q07422)
T3 sequence (Q07422 whole entry): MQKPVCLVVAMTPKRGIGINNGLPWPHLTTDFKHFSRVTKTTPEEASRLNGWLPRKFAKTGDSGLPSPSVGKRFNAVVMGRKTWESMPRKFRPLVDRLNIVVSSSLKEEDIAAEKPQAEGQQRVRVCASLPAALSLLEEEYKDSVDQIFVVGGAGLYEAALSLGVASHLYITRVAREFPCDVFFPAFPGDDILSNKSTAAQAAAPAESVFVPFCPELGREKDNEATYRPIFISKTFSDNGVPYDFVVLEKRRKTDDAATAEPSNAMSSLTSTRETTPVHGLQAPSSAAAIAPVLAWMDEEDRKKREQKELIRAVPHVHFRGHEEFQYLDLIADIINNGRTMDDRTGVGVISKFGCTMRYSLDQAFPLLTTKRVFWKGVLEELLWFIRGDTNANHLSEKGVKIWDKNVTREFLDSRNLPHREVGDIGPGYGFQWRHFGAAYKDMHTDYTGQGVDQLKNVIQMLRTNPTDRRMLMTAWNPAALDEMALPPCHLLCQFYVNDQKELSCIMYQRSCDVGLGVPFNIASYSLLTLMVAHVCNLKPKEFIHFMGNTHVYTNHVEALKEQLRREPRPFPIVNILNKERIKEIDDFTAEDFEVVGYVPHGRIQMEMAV
Description: Inhibitory activity against Toxoplasma gondii dihydrofolate reductase

IC50 (Dihydrofolate reductase [1]) [nM] | IC50 (Dihydrofolate reductase [2]) [nM] | SMILES | IC50 (Toxoplasma gondii) [nM] | IC50 [3] [nM]
4200 | 8200 | Nc1nc(N)c2nc(CSc3cccc4ccccc34)cnc2n1 | 3000 | 7000
3900 | 470 | COc1ccc(OC)c(N(C)Cc2cnc3nc(N)nc(N)c3n2)c1 | 1600 | 210
50 | 13 | COc1cc(OC)cc(N(C)Cc2cnc3nc(N)nc(N)c3c2C)c1 | 10 | 4
1500 | 300 | Nc1nc(N)c2nc(CNc3ccc(Cl)cc3)cnc2n1 | 700 | 590
360 | 370 | Cc1c(CSc2ccc(Cl)cc2)cnc2nc(N)nc(N)c12 | 300 | 90
260 | 230 | Nc1nc(N)c2cc(CNc3cccc4ccccc34)cnc2n1 | 800 | 150
11 | 10 | COc1ccc(OC)c(NCc2cnc3nc(N)nc(N)c3c2C)c1 | 200 | 14
93 | 230 | COc1ccc(C(F)(F)F)cc1N(C)Cc1cnc2nc(N)nc(N)c2c1C | 200 | 38
600 | 73 | Nc1nc(N)c2cc(CNc3ccc(Cl)cc3)ccc2n1 | 10 | 75
17200 | 10200 | COc1ccc(SCc2cnc3nc(N)nc(N)c3n2)cc1 | 3000 | 14000
210 | 55 | Nc1nc(N)c2cc(CNc3cccc4ccccc34)ccc2n1 | 60 | 27
150 | 140 | Cc1c(CN(C)c2cccc3c2CCCC3)cnc2nc(N)nc(N)c12 | 20 | 16
330 | 23 | Cc1cc(Cl)ccc1NCc1ccc2nc(N)nc(N)c2c1 | 200 | 33
170 | 330 | Cc1cccc(SCc2cnc3nc(N)nc(N)c3c2C)c1 | 200 | 65
58200 | 36300 | COc1ccc(SCc2cnc3nc(N)nc(N)c3n2)cc1OC | 5000 | 23200
 | 810 | COc1cc(NCc2cnc3nc(N)nc(N)c3c2)cc(OC)c1OC | 15000 | 130
64 | 135 | Cc1c(CCc2cccc3ccccc23)cnc2nc(N)nc(N)c12 | 100 | 26
9900 | 7700 | COc1cccc(SCc2cnc3nc(N)nc(N)c3n2)c1 | 5000 | 1600
170 | 29 | COc1ccc(NCc2cnc3nc(N)nc(N)c3c2C)c(C)c1 | 600 | 7.2

IC50 (Dihydrofolate reductase [1]) [nM] | IC50 (Dihydrofolate reductase [2]) [nM] | SMILES | IC50 (Toxoplasma gondii) [nM] | IC50 [3] [nM]
30 | 120 | Cc1ccc(C)c(NCc2cnc3nc(N)nc(N)c3c2C)c1 | 10 | 16
6200 | 22900 | COc1ccc(OC)c(NCc2cnc3nc(N)nc(N)c3n2)c1 | 5000 | 6900
110 | 72 | Cc1c(CNc2ccc(Cl)cc2)cnc2nc(N)nc(N)c12 | 150 | 32
 | 26000 | Cc1ccc(SCc2cnc3nc(N)nc(N)c3n2)cc1 | 5000 | 15000
750 | 460 | COc1ccc(OC)c(NCc2ccc3nc(N)nc(N)c3c2)c1 | 600 | 140
7000 | 1900 | COc1cc(NCc2cnc3nc(N)nc(N)c3n2)cc(OC)c1OC | 11000 | 1000
680 | 1900 | COc1cc(NCc2cnc3nc(N)nc(N)c3n2)cc(C(F)(F)F)c1 | 1000 | 890
970 | 720 | Nc1nc(N)c2cc(CNc3ccc(Cl)cc3)cnc2n1 | 4000 | 300
21000 | 21000 | COc1ccc(C(F)(F)F)cc1NCc1cnc2nc(N)nc(N)c2n1 | 2000 | 10600
 | 5.4 | COc1cc(NCc2cnc3nc(N)nc(N)c3c2C)cc(OC)c1OC | 1000 | 
> 3000 | > 3000 | COc1ccc(C)c(NCc2cnc3nc(N)nc(N)c3n2)c1 | 1000 | 440
350 | 230 | COc1ccc(N(C)Cc2cnc3nc(N)nc(N)c3c2C)c(OC)c1 | 300 | 53
220 | 110 | Cc1c(CNc2cccc3ccccc23)cnc2nc(N)nc(N)c12 | 12 | 240
560 |  | COc1ccc(SCc2cnc3nc(N)nc(N)c3c2C)cc1 | 300 | 
960 | 880 | COc1cc(NCc2cnc3nc(N)nc(N)c3n2)cc(OC)c1 | 1000 | 110
20 | 17 | COc1cc(NCc2cnc3nc(N)nc(N)c3c2C)cc(C(F)(F)F)c1 | 200 | 18
68 | 190 | Cc1c(CSc2cccc(Cl)c2)cnc2nc(N)nc(N)c12 | 150 | 90
530 | 500 | Cc1ccc(SCc2cnc3nc(N)nc(N)c3c2C)cc1 | 300 | 57
 | 1260 | Nc1nc(N)c2nc(CNc3cccc4ccccc34)cnc2n1 | 250 | 76

IC50 (Dihydrofolate reductase [1]) [nM] | IC50 (Dihydrofolate reductase [2]) [nM] | SMILES | IC50 (Toxoplasma gondii) [nM] | IC50 [3] [nM]
 | 60000 | Nc1nc(N)c2nc(CCc3cccc4ccccc34)cnc2n1 | 1000 | 820
340 | 600 | COc1cccc(SCc2cnc3nc(N)nc(N)c3c2C)c1 | 200 | 110
9500 |  | Nc1nc(N)c2nc(CSc3ccccc3)cnc2n1 | 10000 | 
29 | 5.2 | COc1ccc(N(C)Cc2cnc3nc(N)nc(N)c3c2C)cc1OC | 150 | 2.9
68 | 160 | COc1ccc(C)cc1NCc1cnc2nc(N)nc(N)c2c1C | 50 | 15
91 | 61 | COc1ccc(NCc2cnc3nc(N)nc(N)c3c2C)c(OC)c1 | 200 | 10
1000 | 320 | COc1cccc(C)c1NCc1cnc2nc(N)nc(N)c2c1C | 300 | 100
44 | 20 | COc1ccc(C(F)(F)F)cc1NCc1cnc2nc(N)nc(N)c2c1C | 20 | 22
700 | 460 | COc1ccc(OC)c(N(C)Cc2cnc3nc(N)nc(N)c3c2C)c1 | 200 | 28
100 | 130 | Cc1c(CNc2cccc3c2CCCC3)cnc2nc(N)nc(N)c12 | 60 | 26
51 | 6.5 | COc1ccc(NCc2cnc3nc(N)nc(N)c3c2C)cc1OC | 600 | 2.7
340 | 770 | COc1ccc(OC)c(CCc2cnc3nc(N)nc(N)c3c2C)c1 | 100 | 7.9
21200 | 8480 | Cc1cccc(SCc2cnc3nc(N)nc(N)c3n2)c1 | 4000 | 1800
11100 | 23200 | COc1ccc(OC)c(CCc2cnc3nc(N)nc(N)c3n2)c1 | 5000 | 5400
440 | 430 | Cc1c(CSc2ccccc2)cnc2nc(N)nc(N)c12 | 200 | 34
42200 | 26600 | Nc1nc(N)c2nc(CSc3cccc(Cl)c3)cnc2n1 | > 10000 | 5700
 |  | COc1ccc(OC)c(Cc2cnc3nc(N)nc(N)c3c2C)c1 [PIRITREXIM] | 20 | 
 |  | CCc1nc(N)nc(N)c1-c1ccc(Cl)cc1 [PYRIMETHAMINE] | 400 | 

SMILES | IC50 (Dihydrofolate reductase [1]) [nM] | IC50 (Dihydrofolate reductase [2]) [nM] | IC50 (Toxoplasma gondii) [nM] | IC50 [3] [nM]
COc1ccc(SCc2cnc3nc(N)nc(N)c3c2C)cc1OC | 150 | 180 | 5000 | 30
